# Reference: patent publication US10272056B2, “Treatment for mitochondrial diseases” (The George Washington University a Congressionally …, priority 2015, dated 2019)
# Entries after “also recorded” stand apart in the source; their conditions may differ.
# Legend:
# [1] = system: Tfam; assay: Quantitative immunoblot analysis of Tfam; format: cell-based; conditions: NaBt treatment, PC12-ND6
# Excerpt: FIG. 11A-11D are images from microscopy and graphs showing NaBt promotes mtDNA replication via the NRF-1/Tfam axis. (A) Confocal analysis of mtDNA foci; scale bar=5 (B) Quantitative analysis of mtDNA copy number by PCR; *p<0.001. (C, D) Quantitative immunoblot analysis of NRF-1 and Tfam; *p<0.001.
# NaBt enhances mtDNA replication via the PGC1α-mediated NRF-1/Tfam axis. It was investigated whether NaBt enhanced mtDNA replication using the PicoGreen® dye to label mtDNA. PC12-ND6 cells were transfected with the mito-dsRed vector prior to NaBt treatment followed by PicoGreen® staining. […] To corroborate enhanced mitochondrial biogenesis, two key target genes of PGC1α were examined, the NRF-1 transcription factor and its direct target gene Tfam, both essential for mitochondrial biogenesis. […] The findings confirm the NaBt-mediated modulation of mitochondrial biogenesis and mtDNA replication in neuronal cells.
# [2] = system: MELAS fibroblasts; assay: Affymetrix genome-wide microarray analysis; format: cell-based, human
# Excerpt: An embodiment of the novel pharmacological approach described herein uses butyrates to promote nuclear and mitochondrial metabolic reprogramming by boosting mitochondrial biogenesis and maximizing residual ATP output. […] Thus, the data validate a pharmaco-epigenomic approach and establish proof-of-principle. It was hypothesized that butyrates can augment the functional mitochondrial mass in skin fibroblasts from 20 MELAS patients. Fibroblasts from this number of patients, each with different nuclear backgrounds and heteroplasmic loads, will ensure the findings extend beyond a case study into a statistically sound and broadly applicable report. It will be tested whether butyrates: (Aim 1) induce favorable mitochondrial biogenesis, thereby shifting heteroplasmy toward healthy mitochondria; and (Aim 2) maximize ATP output via optimization of OXPHOS activity and a metabolic shift toward fatty acid beta oxidation. It is anticipated to identify the most promising butyrate candidate for alleviating the symptoms of the MELAS disease. The proposed study will set the stage for future clinical studies with the Children's National Medical Center and the North American Mitochondrial Disease Consortium, in concordance with the PAR-13-023 issued by the NINDS Office of Translational Research for R21 exploratory projects.
# [3] = system: MELAS fibroblasts; assay: Mitochondrial mass, morphology and networking (MTG live cell confocal analysis); format: cell-based, human; conditions: three-day exposure; NaBt 2.5 mM, TBN 1.5 mM, AN9 300 μM
# Excerpt: FIG. 17A-17C are images from microscopy and graphs showing that butyrates rescue the mitochondrial phenotype in MELAS fibroblasts. (A) Confocal analysis of healthy and MELAS fibroblasts treated as indicated and labeled with the MTG dye; scale bar=10 (B) Analysis of the mitochondrial mass; n=3 (60 cells per experiment; ^‡p<0.05, unpaired T-test *p<0.05, paired T-test). (C) Analysis of Δψm (^‡p<0.05, unpaired T-test; *p<0.05, paired T-test).
# (§1) Butyrates rescue the mitochondrial mass, morphology, networking, membrane potential, and cellular ATP levels in MELAS fibroblasts. Skin fibroblasts from two MELAS patients and from a healthy subject as a control were used. Dose-dependent analyses of butyrates to determine their best concentrations for eliciting an optimal mitochondrial response without cellular toxicity was performed. Healthy and MELAS fibroblasts were treated with PBS, NaBt (2.5 mM), TBN (1.5 mM), or AN9 (300 μM) for three days before labeling with the MTG dye for live cell confocal analysis.
# as §1, with “networking, and” for “networking,”, “potential” for “potential, and cellular ATP levels”, “butyrates was performed” for “butyrates”, “toxicity.” for “toxicity was performed.”
# [4] = system: MELAS fibroblasts; assay: Morphometric analysis of mitochondrial connectivity (Image J); format: cell-based, human; conditions: Image J analysis of MTG-labeled fibroblasts
# Protocol: FIG. 18 is a graph showing that butyrate and its derivatives rescue the mitochondrial dynamics and connectivity in MELAS fibroblasts.
# as §1, with “networking, and” for “networking,”, “potential” for “potential, and cellular ATP levels”, “butyrates was performed” for “butyrates”, “toxicity.” for “toxicity was performed.”
# [5] = system: ependymal cells of the choroid plexus; assay: In vivo mitochondrial mass of choroid plexus (SOD2 immunohistochemistry); design: species or system mice; conditions: NaBt intraperitoneally in E12.5 pregnant dams, brains at E17.5, vs sham
# Excerpt: FIG. 8 is a schematic and image from microscopy showing that NaBt increases in vivo the mitochondrial mass of ependymal cells of the choroid plexus.
# NaBt increases in vivo the mitochondrial mass of ependymal cells of the choroid plexus. NaBt's effect on mitochondrial mass of ependymal cells from the choroid plexus was investigated. It is a highly vascularized tissue lining the brain ventricles, which is responsible for producing and secreting the cerebral spinal fluid (CSF) and for supplying growth factors and key ions to the developing and mature brain ([…]). The secretory functions of the ependymal cells are highly dependent of mitochondria to ensure active transports of small ions, water and growth factors from the blood side to the CSF side. Impairment of mitochondrial functions in the choroid plexus has been documented in neurodegenerative diseases, such as Alzheimer's disease. To test the effect of NaBt in the choroid plexus of the murine developing brain, NaBt was injected intraperitoneally in E12.5 pregnant dams before dissected the brains at E17.5. Immunohistochemistry was performed on E17.5 sectioned brains to analyze the mitochondrial mass using an antibody against the mitochondrial marker SOD2.
# [6] = system: mouse models of neurodegenerative diseases and ischemia/stroke; conditions: in vivo; cited from earlier work
# [7] = system: PC12-ND6 cells; assay: ROS (superoxide anions) by MitoSOX live cell confocal microscopy; format: cell-based; conditions: NaBt 5 mM, three days
# Protocol: PC12-ND6 cells were grown in the absence or presence of NaBt (5 mM) for three days before being labeled with the MitoSox™ dye and the nuclear counterstain Hoechst 33342 and analyzed by live cell confocal imaging. Images are representative of three independent experiments. Scale bar represents 10 μm.
# On the basis that increased ΔΨm could result in elevated ROS levels due to electron leakage through the mitochondrial electron transfer chain (ETC), the relative levels of superoxide anions (O2^−) were measured by live cell confocal microscopy using the redox-sensitive fluorogenic live-cell permeant dye MitoSOX™, as described in Uittenbogaard et al., 2010b.
smiles,measurement,setting,value
"CCCC(=O)[O-].[Na+] [NaBt, sodium butyrate]",Tfam expression,[1],induced Tfam expression on day 2
same,increased expression of OXPHOS genes,"[2]; 30 genes, p<0.05",≥ 1.5 fold
same,nuclear genes significantly regulated,[2]; NaBt,5%
same,off-target effects,[2]; NaBt,limited off-target effects
same,expression of nuclear genes involved in mitochondrial morphology and fusion-fission events,[2]; NaBt-treated,increased expression levels
same,genes known to promote FAO,[2]; NaBt-treated,ten upregulated genes
same,number of OXPHOS genes with increased expression,"[2]; subunits of complexes II, III, IV, V, p<0.05",30
same,"mitochondrial mass, morphology, and networking",[3],"restored normal mitochondrial mass, morphology, and networking"
same,connectivity among mitochondria,[4],rescue the connectivity among mitochondria
same,mitochondrial mass of ependymal cells of the choroid plexus,[5],substantial increase
same,effects in mouse models,[6],"stimulates neurogenesis, enhances synaptic plasticity and memory, while preventing neuronal death"
same,ROS production,[7],does not trigger ROS generation; also recorded: failed to generate ROS production
